Measured values reported in US20200187502A1, “MICROBIOCIDAL OXADIAZOLE DERIVATIVES” (SYNGENTA PARTICIPATIONS AG, priority 2017, published 2020).

Tests used:
[1] = tested on: Puccinia recondita f. Sp. Tritici; assay: Fungicidal activity, wheat leaf disc curative (brown rust); assay type: in vivo; conditions: foliar, 200 ppm in the applied formulation, wheat leaf segments cv. Kanzler, curative (applied 1 day after inoculation), compared to untreated control, 6 to 8 days after application, read-out: disease control
Method in brief: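 Segments of wheat (cultivar Kanzler) sit on agar and are spore-inoculated first; after one day in darkness at 19° C and 75% RH the diluted formulated compound is sprayed on. A 12 h photoperiod follows at the same temperature and humidity before disease is scored against untreated controls.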

[2] = tested on: Puccinia recondita f. Sp. Tritici; assay: Fungicidal activity, wheat leaf disc preventative (brown rust); assay type: in vivo; conditions: foliar, 200 ppm in the applied formulation, wheat leaf segments cv. Kanzler, compared to untreated control, 7 to 9 days after application, read-out: disease control
Method in brief: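 Preventative leaf-segment test: spray application of diluted formulated compound on wheat cv. Kanzler, spore inoculation after 1 day. Percent control relative to untreated segments rated 7 to 9 days post-application, with incubation at 19° C, 75% relative humidity, 12 h photoperiod.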

Phakopsora pachyrhizi = assay: Fungicidal activity, soybean leaf disc preventative (Asian soybean rust); assay type: in vivo; conditions: foliar, 200 ppm in the applied formulation, soybean leaf disks, compared to untreated control, 12 to 14 days after application, read-out: disease control
Method in brief: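 Read-out is percent disease control relative to untreated check discs, assessed once untreated discs show adequate disease, 12 to 14 days after application. Compounds, tested at 200 ppm in the applied formulation, are sprayed onto soybean leaf discs one day before inoculation with a spore suspension.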

[3] = tested on: Glomerella lacenarium (Colletotrichum lacenarium); assay: Fungicidal activity, liquid culture, cucumber preventative (anthracnose); assay type: cell-based; conditions: 20 ppm in the applied formulation, liquid culture in PDB, inhibition of growth measured photometrically 3 to 4 days after application, compared to untreated control, read-out: disease control
Method in brief: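 Test compound in DMSO is placed in a microtiter plate, then potato dextrose broth containing conidia from cryogenic storage is added. Incubation runs at 24° C., and growth inhibition is read photometrically after 3 to 4 days.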

CCC(=O)N(Cc1ccc(-c2noc(C(F)(F)F)n2)s1)C1CC1 [Compound 4.56, N-cyclopropyl-N-[[5-[5-(trifluoromethyl)-1,2,4-oxadiazol-3-yl]-2-thienyl]methyl]propanamide]
≥ 80%: pest or weed control at 200 ppm [1] | pest or weed control at 200 ppm [2] | pest or weed control at 200 ppm (Phakopsora pachyrhizi) | inhibition of growth at 20 ppm [3]

COCCCC(=O)N(Cc1ccc(-c2noc(C(F)(F)F)n2)s1)C1CC1 [Compound 4.58, N-cyclopropyl-4-methoxy-N-[[5-[5-(trifluoromethyl)-1,2,4-oxadiazol-3-yl]-2-thienyl]methyl]butanamide]
≥ 80%: pest or weed control at 200 ppm [1] | pest or weed control at 200 ppm [2] | pest or weed control at 200 ppm (Phakopsora pachyrhizi) | inhibition of growth at 20 ppm [3]

COCCC(=O)N(Cc1ccc(-c2noc(C(F)(F)F)n2)s1)OCC(F)F [Compound 4.64, N-(2,2-difluoroethoxy)-3-methoxy-N-[[5-[5-(trifluoromethyl)-1,2,4-oxadiazol-3-yl]-2-thienyl]methyl]propanamide]
≥ 80%: pest or weed control at 200 ppm [1] | pest or weed control at 200 ppm [2] | pest or weed control at 200 ppm (Phakopsora pachyrhizi) | inhibition of growth at 20 ppm [3]

CCN(Cc1ccc(-c2noc(C(F)(F)F)n2)s1)C(=O)N(C)CC#N [Compound 4.70, 1-(cyanomethyl)-3-ethyl-1-methyl-3-[[5-[5-(trifluoromethyl)-1,2,4-oxadiazol-3-yl]-2-thienyl]methyl]urea]
≥ 80%: pest or weed control at 200 ppm [1] | pest or weed control at 200 ppm [2] | pest or weed control at 200 ppm (Phakopsora pachyrhizi) | inhibition of growth at 20 ppm [3]

C=CCN(C)C(=O)N(CC)Cc1ccc(-c2noc(C(F)(F)F)n2)s1 [Compound 4.71, 1-allyl-3-ethyl-1-methyl-3-[[5-[5-(trifluoromethyl)-1,2,4-oxadiazol-3-yl]-2-thienyl]methyl]urea]
≥ 80%: pest or weed control at 200 ppm [1] | pest or weed control at 200 ppm [2] | pest or weed control at 200 ppm (Phakopsora pachyrhizi) | inhibition of growth at 20 ppm [3]

CCN(Cc1ccc(-c2noc(C(F)(F)F)n2)s1)C(=O)NCCOC [Compound 4.72, 1-ethyl-3-(2-methoxyethyl)-1-[[5-[5-(trifluoromethyl)-1,2,4-oxadiazol-3-yl]-2-thienyl]methyl]urea]
≥ 80%: pest or weed control at 200 ppm [1] | pest or weed control at 200 ppm [2] | pest or weed control at 200 ppm (Phakopsora pachyrhizi) | inhibition of growth at 20 ppm [3]

C#CCNC(=O)N(CC)Cc1ccc(-c2noc(C(F)(F)F)n2)s1 [Compound 4.75, 1-ethyl-3-prop-2-ynyl-1-[[5-[5-(trifluoromethyl)-1,2,4-oxadiazol-3-yl]-2-thienyl]methyl]urea]
≥ 80%: pest or weed control at 200 ppm [1] | pest or weed control at 200 ppm [2] | pest or weed control at 200 ppm (Phakopsora pachyrhizi) | inhibition of growth at 20 ppm [3]

CN(CC#N)C(=O)N(C)Cc1ccc(-c2noc(C(F)(F)F)n2)s1 [Compound 4.76, 1-(cyanomethyl)-1,3-dimethyl-3-[[5-[5-(trifluoromethyl)-1,2,4-oxadiazol-3-yl]-2-thienyl]methyl]urea]
≥ 80%: pest or weed control at 200 ppm [1] | pest or weed control at 200 ppm [2] | pest or weed control at 200 ppm (Phakopsora pachyrhizi) | inhibition of growth at 20 ppm [3]

C=CCN(C)C(=O)N(C)Cc1ccc(-c2noc(C(F)(F)F)n2)s1 [Compound 4.77, 1-allyl-1,3-dimethyl-3-[[5-(5-(trifluoromethyl)-1,2,4-oxadiazol-3-yl]-2-thienyl]methyl]urea]
≥ 80%: pest or weed control at 200 ppm [1] | pest or weed control at 200 ppm [2] | pest or weed control at 200 ppm (Phakopsora pachyrhizi) | inhibition of growth at 20 ppm [3]

COCCNC(=O)N(C)Cc1ccc(-c2noc(C(F)(F)F)n2)s1 [Compound 4.78, 3-(2-methoxyethyl)-1-methyl-1-[[5-[5-(trifluoromethyl)-1,2,4-oxadiazol-3-yl]-2-thienyl]methyl]urea]
≥ 80%: pest or weed control at 200 ppm [1] | pest or weed control at 200 ppm [2] | pest or weed control at 200 ppm (Phakopsora pachyrhizi) | inhibition of growth at 20 ppm [3]

CCN(CC)C(=O)N(C)Cc1ccc(-c2noc(C(F)(F)F)n2)s1 [Compound 4.79, 1,1-diethyl-3-methyl-3-[[5-[5-(trifluoromethyl)-1,2,4-oxadiazol-3-yl]-2-thienyl]methyl]urea]
≥ 80%: pest or weed control at 200 ppm [1] | pest or weed control at 200 ppm [2] | pest or weed control at 200 ppm (Phakopsora pachyrhizi) | inhibition of growth at 20 ppm [3]

C#CCNC(=O)N(C)Cc1ccc(-c2noc(C(F)(F)F)n2)s1 [Compound 4.81, 1-methyl-3-prop-2-ynyl-1-[[5-[5-(trifluoromethyl)-1,2,4-oxadiazol-3-yl]-2-thienyl]methyl]urea]
≥ 80%: pest or weed control at 200 ppm [1] | pest or weed control at 200 ppm [2] | pest or weed control at 200 ppm (Phakopsora pachyrhizi) | inhibition of growth at 20 ppm [3]

CCNC(=O)N(Cc1ccc(-c2noc(C(F)(F)F)n2)s1)C(C)C [Compound 4.83, 3-ethyl-1-isopropyl-1-[[5-[5-(trifluoromethyl)-1,2,4-oxadiazol-3-yl]-2-thienyl]methyl]urea]
≥ 80%: pest or weed control at 200 ppm [1] | pest or weed control at 200 ppm [2] | pest or weed control at 200 ppm (Phakopsora pachyrhizi) | inhibition of growth at 20 ppm [3]

C#CCNC(=O)N(Cc1ccc(-c2noc(C(F)(F)F)n2)s1)C(C)C [Compound 4.85, 1-isopropyl-3-prop-2-ynyl-1-[[5-[5-(trifluoromethyl)-1,2,4-oxadiazol-3-yl]-2-thienyl]methyl]urea]
≥ 80%: pest or weed control at 200 ppm [1] | pest or weed control at 200 ppm [2] | pest or weed control at 200 ppm (Phakopsora pachyrhizi) | inhibition of growth at 20 ppm [3]

CCNC(=O)N(Cc1ccc(-c2noc(C(F)(F)F)n2)s1)C1CC1 [Compound 4.87, 1-cyclopropyl-3-ethyl-1-[[5-[5-(trifluoromethyl)-1,2,4-oxadiazol-3-yl]-2-thienyl]methyl]urea]
≥ 80%: pest or weed control at 200 ppm [1] | pest or weed control at 200 ppm [2] | pest or weed control at 200 ppm (Phakopsora pachyrhizi) | inhibition of growth at 20 ppm [3]

C=CCN(C)C(=O)N(Cc1ccc(-c2noc(C(F)(F)F)n2)s1)C1CC1 [Compound 4.88, 1-allyl-3-cyclopropyl-1-methyl-3-[[5-[5-(trifluoromethyl)-1,2,4-oxadiazol-3-yl]-2-thienyl]methyl]urea]
≥ 80%: pest or weed control at 200 ppm [1] | pest or weed control at 200 ppm [2] | pest or weed control at 200 ppm (Phakopsora pachyrhizi) | inhibition of growth at 20 ppm [3]

COCCNC(=O)N(Cc1ccc(-c2noc(C(F)(F)F)n2)s1)C1CC1 [Compound 4.89, 1-cyclopropyl-3-(2-methoxyethyl)-1-[[5-[5-(trifluoromethyl)-1,2,4-oxadiazol-3-yl]-2-thienyl]methyl]urea]
≥ 80%: pest or weed control at 200 ppm [1] | pest or weed control at 200 ppm [2] | pest or weed control at 200 ppm (Phakopsora pachyrhizi) | inhibition of growth at 20 ppm [3]

C#CCNC(=O)N(Cc1ccc(-c2noc(C(F)(F)F)n2)s1)C1CC1 [Compound 4.92, 1-cyclopropyl-3-prop-2-ynyl-1-[[5-[5-(trifluoromethyl)-1,2,4-oxadiazol-3-yl]-2-thienyl]methyl]urea]
≥ 80%: pest or weed control at 200 ppm [1] | pest or weed control at 200 ppm [2] | pest or weed control at 200 ppm (Phakopsora pachyrhizi) | inhibition of growth at 20 ppm [3]

C#CCNC(=O)N(Cc1ccc(-c2noc(C(F)(F)F)n2)s1)OCC(F)F [Compound 4.93, 1-(2,2-difluoroethoxy)-3-prop-2-ynyl-1-[[5-[5-(trifluoromethyl)-1,2,4-oxadiazol-3-yl]-2-thienyl]methyl]urea]
≥ 80%: pest or weed control at 200 ppm [1] | pest or weed control at 200 ppm [2] | pest or weed control at 200 ppm (Phakopsora pachyrhizi) | inhibition of growth at 20 ppm [3]

CN(Cc1ccc(-c2noc(C(F)(F)F)n2)s1)C(=O)C1CC1 [Compound 5.1, N-methyl-N-[[5-[5-(trifluoromethyl)-1,2,4-oxadiazol-3-yl]-2-thienyl]methyl]cyclopropanecarboxamide]
≥ 80%: pest or weed control at 200 ppm [1] | pest or weed control at 200 ppm [2] | pest or weed control at 200 ppm (Phakopsora pachyrhizi) | inhibition of growth at 20 ppm [3]

O=C(C1CC1)N(Cc1ccc(-c2noc(C(F)(F)F)n2)s1)C1CC1 [Compound 5.2, N-cyclopropyl-N-[[5-[5-(trifluoromethyl)-1,2,4-oxadiazol-3-yl]-2-thienyl]methyl]cyclopropanecarboxamide]
≥ 80%: pest or weed control at 200 ppm [1] | pest or weed control at 200 ppm [2] | pest or weed control at 200 ppm (Phakopsora pachyrhizi) | inhibition of growth at 20 ppm [3]

CCN(Cc1ccc(-c2noc(C(F)(F)F)n2)s1)C(=O)NC1CC1 [Compound 5.3, 3-cyclopropyl-1-ethyl-1-[[5-[5-(trifluoromethyl)-1,2,4-oxadiazol-3-yl]-2-thienyl]methyl]urea]
≥ 80%: pest or weed control at 200 ppm [1] | pest or weed control at 200 ppm [2] | pest or weed control at 200 ppm (Phakopsora pachyrhizi) | inhibition of growth at 20 ppm [3]

CCN(Cc1ccc(-c2noc(C(F)(F)F)n2)s1)C(=O)C1CC1 [Compound 5.4, N-ethyl-N-[[5-[5-(trifluoromethyl)-1,2,4-oxadiazol-3-yl]-2-thienyl]methyl]cyclopropanecarboxamide]
≥ 80%: pest or weed control at 200 ppm [1] | pest or weed control at 200 ppm [2] | pest or weed control at 200 ppm (Phakopsora pachyrhizi) | inhibition of growth at 20 ppm [3]
